Reference: patent US10604512B2, “3-(1H-indol-2-yl)-1H-indazoles and therapeutic uses thereof” (Samumed, LLC, priority 2015, dated 2020)

Tests used:
Format in all cases: cell-based
[1] = test system: Wnt activity (Sp5-Luc reporter, TCF/LEF binding sites) in SW480 colon carcinoma cells; assay: Screening assay for Wnt activity: Sp5-Luc reporter gene assay in stably transduced SW480 colon carcinoma cells; settings: Homo sapiens; for EC50: overnight incubation, 10-point curve from 10 μM; for inhibition at 10 µM: given where EC50 >10 μM, read-out: percent inhibition at 10 μM
Procedure, shortened: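 SW480 cells stably transduced with a luciferase reporter driven by an Sp5 promoter of eight TCF/LEF sites were plated at 4,000 cells/well in 1% FBS medium. They were exposed overnight at 37° C to a 10-point 1:3 dilution series from 10 μM (0.1% DMSO). Luminescence was normalized to DMSO for four-parameter EC50, or percent inhibition at 10 μM.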

[2] = test system: SW480 colon cancer cells; assay: Cell viability assay (CellTiter-Blue) in SW480 colon cancer cells; settings: Homo sapiens, 96 h, four days; for inhibition at 10 µM: given where EC50 >10 μM, read-out: percent inhibition at 10 μM; for EC50: CellTiter-Blue
Procedure, shortened: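 SW480 colon cancer cells (~2×10^3/well) exposed to 8-point 1:3 dilutions from 10 μM to 0.0045 μM for four days at 37 °C/5% CO2. Viability read by resazurin (CellTiter-Blue) fluorescence after ~3 h, Ex 560/Em 590 nm. EC50 from non-linear regression; percent inhibition at 10 μM given when EC50 >10 μM.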

[3] = test system: Primary human fibroblasts derived from IPF patients (LL29 cells) treated with TGF-β1; assay: Inhibition of the fibrotic process: αSMA staining in TGF-β1-treated primary human fibroblasts from IPF patients (LL29 cells); settings: Fibroblast, 96 h; for EC50: % αSMA-positive LL29 cells, TGF-β1 20 ng/mL, 4 days; for inhibition at 10 µM: given where EC50 >10 μM, αSMA, LL29 cells, TGF-β1, 4 days, read-out: percent inhibition at 10 μM
Procedure, shortened: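 LL29 IPF-patient fibroblasts in 1% FBS stimulated with TGF-β1 (20 ng/mL) and compound (10 μM–1.87 nM, 0.1% DMSO) for 4 days at 37 °C. SYTOX-positive cells excluded; % αSMA-positive cells imaged, normalized to TGF-β1/DMSO wells; EC50 by nonlinear regression, else % inhibition at 10 μM.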

SMILES | EC50 [1] [nM] | EC50 [2] [nM] | inhibition at 10 µM [2] [%] | EC50 [3] [nM] | inhibition at 10 µM [3] [%] | inhibition at 10 µM [1] [%]
CCCC(=O)Nc1cncc(-c2ccc3[nH]nc(-c4cc5c(-c6ccncc6)cccc5[nH]4)c3c2)c1 [Compound 129, N-(5-(3-(4-(Pyridin-4-yl)-1H-indol-2-yl)-1H-indazol-5-yl)pyridin-3-yl) butyramide] | 600 | 9530 | – | 2870 | – | –
c1cc(-c2ccncc2)c2cc(-c3n[nH]c4ccc(-c5ccncc5)cc34)[nH]c2c1 [Compound 130, 5-(Pyridin-4-yl)-3-(4-(pyridin-4-yl)-1H-indol-2-yl)-1H-indazole] | > 10000 | > 10000 | 23.2 | 1650 | – | 52.8
c1ccc2[nH]c(-c3n[nH]c4ccc(-c5cncc(OCCN6CCCC6)c5)cc34)cc2c1 [Compound 686, 3-(1H-Indol-2-yl)-5-(5-(2-(pyrrolidin-1-yl)ethoxy)pyridin-3-yl)-1H-indazole] | 1090 | 574 | – | 7390 | – | –
CCC(=O)Nc1cncc(-c2ccc3[nH]nc(-c4cc5c(N6CCCCC6)cccc5[nH]4)c3c2)c1 [Compound 169, N-(5-(3-(4-(Piperidin-1-yl)-1H-indol-2-yl)-1H-indazol-5-yl)pyridin-3-yl) propionamide] | 1400 | > 10000 | 10.4 | 1020 | – | –
CN1CCN(c2cccc3[nH]c(-c4n[nH]c5ccc(-c6cncc(CN7CCCCC7)c6)cc45)cc23)CC1 [Compound 239, 3-(4-(4-Methylpiperazin-1-yl)-1H-indol-2-yl)-5-(5-(piperidin-1-ylmethyl)pyridin-3-yl)-1H-indazole] | 4970 | > 10000 | 51.7 | > 10000 | 21.1 | –
CN1CCN(c2cccc3[nH]c(-c4n[nH]c5ccc(-c6cncc(N)c6)cc45)cc23)CC1 [Compound 227, 5-(3-(4-(4-Methylpiperazin-1-yl)-1H-indol-2-yl)-1H-indazol-5-yl)pyridin-3-amine] | 474 | 2960 | – | 4000 | – | –
O=C(Nc1cncc(-c2ccc3[nH]nc(-c4cc5c(-c6ccc(F)cc6)cccc5[nH]4)c3c2)c1)c1ccccc1 [Compound 39, N-(5-(3-(4-(4-Fluorophenyl)-1H-indol-2-yl)-1H-indazol-5-yl)pyridin-3-yl) benzamide] | 530 | 3810 | – | 1260 | – | –
c1cncc(-c2cccc3[nH]c(-c4n[nH]c5ccc(-c6cncc(CN7CCCCC7)c6)cc45)cc23)c1 [Compound 99, 5-(5-(Piperidin-1-ylmethyl)pyridin-3-yl)-3-(4-(pyridin-3-yl)-1H-indol-2-yl)-1H-indazole] | 5000 | > 10000 | 6.5 | > 10000 | – | –
Fc1ccc(-c2cccc3[nH]c(-c4n[nH]c5ccc(-c6cncc(CN7CCCC7)c6)cc45)cc23)cc1 [Compound 42, 3-(4-(4-Fluorophenyl)-1H-indol-2-yl)-5-(5-(pyrrolidin-1-ylmethyl)pyridin-3-yl)-1H-indazole] | 845 | > 10000 | 42.4 | 2090 | – | –
c1cc(N2CCCCC2)c2cc(-c3n[nH]c4ccc(-c5cncc(OC6CCCCC6)c5)cc34)[nH]c2c1 [Compound 635, 5-(5-(Cyclohexyloxy)pyridin-3-yl)-3-(4-(piperidin-1-yl)-1H-indol-2-yl)-1H-indazole] | 2930 | > 10000 | 45.7 | 2410 | – | –
Fc1ccc(-c2cccc3[nH]c(-c4n[nH]c5ccc(C6=CCNCC6)cc45)cc23)cc1 [Compound 550, 3-(4-(4-Fluorophenyl)-1H-indol-2-yl)-5-(1,2,3,6-tetrahydropyridin-4-yl)-1H-indazole] | > 10000 | 3900 | – | > 10000 | 41.7 | 48
Fc1cccc(-c2cccc3[nH]c(-c4n[nH]c5ccc(C6CCNCC6)cc45)cc23)c1 [Compound 533, 3-(4-(3-Fluorophenyl)-1H-indol-2-yl)-5-(piperidin-4-yl)-1H-indazole] | 3830 | 3840 | – | > 10000 | 0 | –
CC(C)(C)CC(=O)Nc1cncc(-c2ccc3[nH]nc(-c4cc5c(-c6ccc(F)cc6)cccc5[nH]4)c3c2)c1 [Compound 44, N-(5-(3-(4-(4-Fluorophenyl)-1H-indol-2-yl)-1H-indazol-5-yl)pyridin-3-yl)-3,3-dimethylbutanamide] | 1150 | > 10000 | 23.1 | 4990 | – | –
c1csc(-c2cccc3[nH]c(-c4n[nH]c5ccc(-c6ccncc6)cc45)cc23)c1 [Compound 354, 5-(pyridin-4-yl)-3-(4-(thiophen-2-yl)-1H-indol-2-yl)-1H-indazole] | 4940 | 8930 | – | > 10000 | 0 | –

Compounds with a lower EC50 [1], results first:

EC50 [1] [nM] | EC50 [2] [nM] | SMILES | inhibition at 10 µM [2] [%] | EC50 [3] [nM] | inhibition at 10 µM [3] [%] | inhibition at 10 µM [1] [%]
165 | > 10000 | CN(C)Cc1cncc(-c2ccc3[nH]nc(-c4cc5c(-c6ccc(F)cc6)cccc5[nH]4)c3c2)c1 [Compound 41, 1-(5-(3-(4-(4-Fluorophenyl)-1H-indol-2-yl)-1H-indazol-5-yl)pyridin-3-yl)-N,N-dimethylmethanamine] | 10 | 5760 | – | –
74 | 371 | c1cncc(-c2ccc3[nH]nc(-c4cc5c(-c6cccs6)cccc5[nH]4)c3c2)c1 [Compound 340, 5-(Pyridin-3-yl)-3-(4-(thiophen-2-yl)-1H-indol-2-yl)-1H-indazole] | – | > 10000 | 38.3 | –
165 | 106 | c1cnc2cc(-c3n[nH]c4ccc(-c5cncc(CN6CCCCC6)c5)cc34)[nH]c2c1 [Compound 519, 5-(5-(Piperidin-1-ylmethyl)pyridin-3-yl)-3-(1H-pyrrolo[3,2-b]pyridin-2-yl)-1H-indazole] | – | > 10000 | 25.4 | –
415 | 489 | CCNCc1cncc(-c2ccc3[nH]nc(-c4cc5ccccc5[nH]4)c3c2)c1 [Compound 258, N-((5-(3-(1H-Indol-2-yl)-1H-indazol-5-yl)pyridin-3-yl)methyl)ethanamine] | – | 235 | – | –
275 | 412 | CN(C)Cc1cncc(-c2ccc3[nH]nc(-c4cc5c(-c6ccncc6)cccc5[nH]4)c3c2)c1 [Compound 125, N,N-dimethyl-1-(5-(3-(4-(Pyridin-4-yl)-1H-indol-2-yl)-1H-indazol-5-yl)pyridin-3-yl)methanamine] | – | 1240 | – | –
115 | > 10000 | CC(C)(C)C(=O)Nc1cncc(-c2ccc3[nH]nc(-c4cc5c(-c6cc(F)cc(CNS(C)(=O)=O)c6)cccc5[nH]4)c3c2)c1 [Compound 484, N-(5-(3-(4-(3-Fluoro-5-(methylsulfonamidomethyl)phenyl)-1H-indol-2-yl)-1H-indazol-5-yl)pyridin-3-yl)pivalamide] | 37.5 | > 10000 | 25.5 | –
85 | 2300 | CC(C)C(=O)Nc1cncc(-c2ccc3[nH]nc(-c4cc5c(-c6cccnc6)cccc5[nH]4)c3c2)c1 [Compound 93, N-(5-(3-(4-(Pyridin-3-yl)-1H-indol-2-yl)-1H-indazol-5-yl)pyridin-3-yl) isobutyramide] | – | 1220 | – | –
205 | 3170 | CS(=O)(=O)NCc1cc(F)cc(-c2cccc3[nH]c(-c4n[nH]c5ccc(-c6cncnc6)cc45)cc23)c1 [Compound 503, N-(3-Fluoro-5-(2-(5-(pyrimidin-5-yl)-1H-indazol-3-yl)-1H-indol-4-yl)benzyl) methanesulfonamide] | – | 311 | – | –
380 | > 10000 | O=C(Nc1cncc(-c2ccc3[nH]nc(-c4cc5ccccc5[nH]4)c3c2)c1)c1ccccc1 [Compound 263, N-(5-(3-(1H-Indol-2-yl)-1H-indazol-5-yl)pyridin-3-yl)benzamide] | 2.9 | 1570 | – | –
53 | 1290 | Nc1cncc(-c2ccc3[nH]nc(-c4cc5c(-c6ccccc6F)cccc5[nH]4)c3c2)c1 [Compound 59, 5-(3-(4-(2-Fluorophenyl)-1H-indol-2-yl)-1H-indazol-5-yl)pyridin-3-amine] | – | 603 | – | –
65 | 479 | CCC(=O)Nc1cncc(-c2ccc3[nH]nc(-c4cc5c(-c6cccnc6)cccc5[nH]4)c3c2)c1 [Compound 85, N-(5-(3-(4-(Pyridin-3-yl)-1H-indol-2-yl)-1H-indazol-5-yl)pyridin-3-yl) propionamide] | – | 66 | – | –
57 | > 10000 | CCC(=O)Nc1cncc(-c2ccc3[nH]nc(-c4cc5c(-c6cccc(F)c6)cccc5[nH]4)c3c2)c1 [Compound 1, N-(5-(3-(4-(3-Fluorophenyl)-1H-indol-2-yl)-1H-indazol-5-yl)pyridin-3-yl) propionamide] | 13.3 | 5190 | – | –
